Converted amounts (≈) assume the structure as drawn.
Molecular target: yeast α-glucosidase enzymes
Assay: α-Glucosidase inhibitory assay
Type: biochemical
Conditions: substrate p-nitrophenyl-α-D-glucopyranoside, pH 6.8, 37 °C
Method: The α-glucosidase assay was performed using 50 mM phosphate buffer (pH 6.8). All samples were dissolved in DMSO. An enzyme (2 U/2 mL) 20 µL/well and test samples (0.5 mg/mL) 20 µL/well and 135 µL/well phosphate buffer were loaded into a 96-well plate, followed by 15 min of incubation at 37 °C. Substrate p-nitrophenyl-α-D-glucopyranoside (0.7 mM) 25 µL/well was added to the 96-well plate after 15 min of incubation, and readings were measured at 400 nm for 30 min. DMSO 7% was used as a positive control. Percent inhibition was calculated by using the following formula [30]. % Inhibition=100×O.D of tested samples/O.D. of control−100
OD is the optical density of the tested samples.

With `C[C@H]1O[C@H](O[C@H]2[C@H](O)[C@@H](O)[C@@H](O[C@H]3[C@H](O)[C@@H](O)C(O)O[C@@H]3CO)O[C@@H]2CO)[C@H](O)[C@@H](O)[C@@H]1N[C@H]1C=C(CO)[C@@H](O)[C@H](O)[C@H]1O` (stereo partly shown) [acarbose] the “IC50 (α-glucosidase inhibition)” value was 377.26 ± 1.20 µg/mL (≈ 584 µM).

Source: paper PMC8879825, “Identification of α-Glucosidase Inhibitors from Scutellaria edelbergii: ESI-LC-MS and Computational Approach” (Molecules, 2022)
